Assay results published in patent publication US20040024055A1, “Pharmaceutical composition containing the exract of saururus chinensis baill useful as an anticancer agent and a process for the preparation thereof” (priority 2000, published 2004).
Where “and” joins values, the source holds several entries; their conditions need not be identical. Equal entries are not always repeated.

Assays:
BT-549 = test: MTT analysis, anticancer activity; format: cell-based, human; details: MTT, 48 hr
KATO-III = test: MTT analysis, anticancer activity; format: cell-based, human; details: MTT, 48 hr
SK-Hep-1 [1] = test: Adhesion of cancer cell to Matri-Gel; format: cell-based, human
Protocol: (§1) After treating HNP-98701 on tissue culture plate coated with the matrices, cancer cell was attached thereupon. To be specific, 50 μl/ml of […], 2 μg/ml of laminin, 2 μg/ml of collagen and 2 μg/ml of gelatin were coated on the surface of 96-well microplate (Corning Co.) per well. After solidifying for 2 hr, HNP-98701 was added to each well and treated for 1 hr. […] After treating the substances for 1 hr, cancer cell was added to each cell, and it was cultured for 3 hr. […] After culturing these cell lines for 3 hr, they were centrifuged. After collecting biomass only, it was washed with distilled water or PBS buffer solution for three times. […] Then, absorbance was measured at 560-405 nm with automatic Eliza detector (Molecular […] Corp., USA). […] Each experiment was performed for three times repeatedly.

HS27 = test: MTT analysis, cytotoxicity against normal cell line; format: cell-based, human; details: MTT, 48 hr
HS-578T = test: MTT analysis, anticancer activity; format: cell-based, human; details: MTT, 48 hr
CPAE = test: MTT analysis, cytotoxicity against normal cell line; format: cell-based, bovine; details: MTT, 48 hr
NIH-3T3 [2] = test: Adhesion of cell to Matri-Gel; format: cell-based, mouse
Protocol: as §1

SK-MEL-28 [3] = test: Adhesion of cancer cell to Gelatin; format: cell-based, human
Protocol: as §1

SK-Hep-1 [4] = test: Adhesion of cancer cell to Gelatin; format: cell-based, human
Protocol: as §1

Hep-2 [5] = test: Adhesion of cancer cell to Gelatin; format: cell-based, human
Protocol: as §1

MCF-7 = test: MTT analysis, anticancer activity; format: cell-based, human; details: MTT, 48 hr
NIH-3T3 [6] = test: MTT analysis, cytotoxicity against normal cell line; format: cell-based, mouse; details: MTT, 48 hr
293 = test: as above; format: cell-based, human; details: MTT, 48 hr
NIH-3T3 [7] = test: Adhesion of cell to Gelatin; format: cell-based, mouse
Protocol: as §1

NIH-3T3 [8] = test: Adhesion of cell to Laminin; format: cell-based, mouse
Protocol: as §1

SK-MEL-28 [9] = test: Adhesion of cancer cell to Collagen; format: cell-based, human
Protocol: as §1

SK-Hep-1 [10] = test: Adhesion of cancer cell to Collagen; format: cell-based, human
Protocol: as §1

Hep-2 [11] = test: Adhesion of cancer cell to Collagen; format: cell-based, human
Protocol: as §1

HS-746T = test: MTT analysis, anticancer activity; format: cell-based, human; details: MTT, 48 hr
A431 = test: MTT analysis, anticancer activity; format: cell-based, human; details: 48 hr
BT-20 = test: MTT analysis, anticancer activity; format: cell-based, human; details: 48 hr
HeLa = test: MTT analysis, anticancer activity; format: cell-based, human; details: 48 hr
HT-29 = test: MTT analysis, anticancer activity; format: cell-based, human; details: MTT, 48 hr
SK-BR-3 = test: MTT analysis, anticancer activity; format: cell-based, human; details: 48 hr
ME-180 = test: MTT analysis, anticancer activity; format: cell-based, human; details: MTT, 48 hr
CHO = test: MTT analysis, cytotoxicity against normal cell line; format: cell-based, Chinese hamster; details: MTT, 48 hr
SK-OV-3 = test: MTT analysis, anticancer activity; format: cell-based, human; details: MTT, 48 hr
3T3-L1 = test: MTT analysis, cytotoxicity against normal cell line; format: cell-based, mouse; details: MTT, 48 hr
[12] = test system: PC-3 prostate cancer cell line; test: MTT analysis, anticancer activity; format: cell-based, human; details: 48 hr
NIH-3T3 [13] = test: Adhesion of cell to Collagen; format: cell-based, mouse
Protocol: as §1

SK-MEL-28 [14] = test: Adhesion of cancer cell to Laminin; format: cell-based, human
Protocol: as §1

SK-Hep-1 [15] = test: Adhesion of cancer cell to Laminin; format: cell-based, human
Protocol: as §1

Hep-2 [16] = test: Adhesion of cancer cell to Laminin; format: cell-based, human
Protocol: as §1

T-47D = test: MTT analysis, anticancer activity; format: cell-based, human; details: 48 hr
HS683 = test: MTT analysis, anticancer activity; format: cell-based, human; details: 48 hr
Hep-2 [17] = test: MTT analysis, anticancer activity; format: cell-based, human; details: MTT, 48 hr
HT1080 = test: MTT analysis, anticancer activity; format: cell-based, human; details: 48 hr
[18] = test system: DU-145 prostate cancer cell line; test: MTT analysis, anticancer activity; format: cell-based, human; details: 48 hr
Protocol: (§2) To be specific, SK-Hep-1 cell, which is liver cancer cell line, was added to 96-well microplate (Falcon, USA) with the concentration of 3×10^5 cells/ml by 100 μl per well. Each extracted and separated substance dissolved in DMSO was added to the well by 100 μl for the final concentration to be from 50 μg/ml to 0.0244 μg/ml, with 200 μl of final volume. Each cell was cultured for 48 hr in a culture medium of 37° C. and 5% CO2. After cultivation, 20 μl of phosphate buffer solution containing 5 mg/ml of MTT (3-[4,5-dimethylthiazol-2-yl]-2,5-diphenyltetrazoliumbromide, Sigma Co.) reagent was added to each well, and then cultured for 4 hr. After taking 100 μl of supernant from each culture medium, 100 μl of 0.04N hydrochloric acid-isopropanol was added. After letting alone overnight, absorbance was measured at 560 nm using automatic Eliza detector (Molecular Divices Corp., USA). Anticancer activity of each extracted and separated substance was calculated from the absorbance value by Equation 1 and was expressed in terms of cell.
(§3) Average Existence Rate(%)=(Absorbance of Treated Group)/(Absorbance of Control Group)×100

[19] = test system: SK-Hep-1 liver cancer cell line; test: MTT analysis, anticancer activity; format: cell-based, human; details: 48 hr
Protocol: as §2, §3

T98G = test: MTT analysis, anticancer activity; format: cell-based, human; details: 48 hr
NCI-H69 = test: MTT analysis, anticancer activity; format: cell-based, human; details: MTT, 48 hr
SK-N-SH = test: MTT analysis, anticancer activity; format: cell-based, human; details: 48 hr
SK-MEL-28 [20] = test: MTT analysis, anticancer activity; format: cell-based, human; details: 48 hr
LoVo = test: MTT analysis, anticancer activity; format: cell-based, human; details: MTT, 48 hr

## N.N.[Cl][Pt][Cl] [Cisplatin]
BT-549
  IC50 BT-549: 1.2522 µg/mL
KATO-III
  IC50 KATO-III: 2.2875 µg/mL
SK-Hep-1 [1]; 0.5 μg/ml
  Adhesion SK-Hep-1 (%): 96.41%
SK-Hep-1 [1]; 5 μg/ml
  Adhesion SK-Hep-1 (%): 105.27%
SK-Hep-1 [1]; 50 μg/ml
  Adhesion SK-Hep-1 (%): 108.26%
HS27
  IC50 HS27: 1.7853 µg/mL
HS-578T
  IC50 HS-578T: 2.3317 µg/mL
CPAE
  IC50 CPAE: 0.8252 µg/mL
NIH-3T3 [2]; 0.5 μg/ml
  Adhesion NIH-3T3 (%): 105.67%
NIH-3T3 [2]; 5 μg/ml
  Adhesion NIH-3T3 (%): 102.40%
NIH-3T3 [2]; 50 μg/ml
  Adhesion NIH-3T3 (%): 101.06%
SK-MEL-28 [3]; 0.5 μg/ml
  Adhesion SK-MEL-28 (%): 92.48%
SK-MEL-28 [3]; 5 μg/ml
  Adhesion SK-MEL-28 (%): 91.13%
SK-MEL-28 [3]; 50 μg/ml
  Adhesion SK-MEL-28 (%): 86.40%
SK-Hep-1 [4]; 0.5 μg/ml
  Adhesion SK-Hep-1 (%): 79.16%
SK-Hep-1 [4]; 5 μg/ml
  Adhesion SK-Hep-1 (%): 74.84%
SK-Hep-1 [4]; 50 μg/ml
  Adhesion SK-Hep-1 (%): 61.25%
Hep-2 [5]; 0.5 μg/ml
  Adhesion Hep-2 (%): 97.20%
Hep-2 [5]; 5 μg/ml
  Adhesion Hep-2 (%): 100.13%
Hep-2 [5]; 50 μg/ml
  Adhesion Hep-2 (%): 91.07%
MCF-7
  IC50 MCF-7: 2.9412 µg/mL
NIH-3T3 [6]
  IC50 NIH-3T3: 1.9756 µg/mL
293
  IC50 293: 1.1678 µg/mL
NIH-3T3 [7]; 0.5 μg/ml
  Adhesion NIH-3T3 (%): 111.43%
NIH-3T3 [7]; 5 μg/ml
  Adhesion NIH-3T3 (%): 110.48%
NIH-3T3 [7]; 50 μg/ml
  Adhesion NIH-3T3 (%): 100.10%
NIH-3T3 [8]; 0.5 μg/ml
  Adhesion NIH-3T3 (%): 93.86%
NIH-3T3 [8]; 5 μg/ml
  Adhesion NIH-3T3 (%): 94.94%
NIH-3T3 [8]; 50 μg/ml
  Adhesion NIH-3T3 (%): 92.45%
SK-MEL-28 [9]; 0.5 μg/ml
  Adhesion SK-MEL-28 (%): 98.46%
SK-MEL-28 [9]; 5 μg/ml
  Adhesion SK-MEL-28 (%): 106.83%
SK-MEL-28 [9]; 50 μg/ml
  Adhesion SK-MEL-28 (%): 117.62%
SK-Hep-1 [10]; 0.5 μg/ml
  Adhesion SK-Hep-1 (%): 104.22%
SK-Hep-1 [10]; 5 μg/ml
  Adhesion SK-Hep-1 (%): 104.57%
SK-Hep-1 [10]; 50 μg/ml
  Adhesion SK-Hep-1 (%): 95.90%
Hep-2 [11]; 0.5 μg/ml
  Adhesion Hep-2 (%): 92.23%
Hep-2 [11]; 5 μg/ml
  Adhesion Hep-2 (%): 89.35%
Hep-2 [11]; 50 μg/ml
  Adhesion Hep-2 (%): 82.83%
HS-746T
  IC50 HS-746T: 2.7680 µg/mL
A431
  IC50 A431: 0.4240 µg/mL
BT-20
  IC50 BT-20: 1.4578 µg/mL
HeLa
  IC50 HeLa: 5.3358 µg/mL
HT-29
  IC50 HT-29: 6.1224 µg/mL
SK-BR-3
  IC50 SK-BR-3: 1.1748 µg/mL
ME-180
  IC50 ME-180: 0.9365 μg/ml
CHO
  IC50 CHO: 2.8462 µg/mL
SK-OV-3
  IC50 SK-OV-3: 5.3442 µg/mL
3T3-L1
  IC50 3T3-L1: 2.7096 µg/mL
[12]
  IC50 PC-3: 2.4867 µg/mL
NIH-3T3 [13]; 0.5 μg/ml
  Adhesion NIH-3T3 (%): 112.51%
NIH-3T3 [13]; 5 μg/ml
  Adhesion NIH-3T3 (%): 108.91%
NIH-3T3 [13]; 50 μg/ml
  Adhesion NIH-3T3 (%): 98.94%
SK-MEL-28 [14]; 0.5 μg/ml
  Adhesion SK-MEL-28 (%): 110.19%
SK-MEL-28 [14]; 5 μg/ml
  Adhesion SK-MEL-28 (%): 105.36%
SK-MEL-28 [14]; 50 μg/ml
  Adhesion SK-MEL-28 (%): 101.16%
SK-Hep-1 [15]; 0.5 μg/ml
  Adhesion SK-Hep-1 (%): 95.65%
SK-Hep-1 [15]; 5 μg/ml
  Adhesion SK-Hep-1 (%): 93.53%
SK-Hep-1 [15]; 50 μg/ml
  Adhesion SK-Hep-1 (%): 88.74%
Hep-2 [16]; 0.5 μg/ml
  Adhesion Hep-2 (%): 102.63%
Hep-2 [16]; 5 μg/ml
  Adhesion Hep-2 (%): 101.25%
Hep-2 [16]; 50 μg/ml
  Adhesion Hep-2 (%): 95.87%
T-47D
  IC50 T-47D: 2.0468 µg/mL
HS683
  IC50 HS683: 0.2490 µg/mL
Hep-2 [17]
  IC50 Hep-2: 0.5518 µg/mL
HT1080
  IC50 HT1080: 2.9512 µg/mL
[18]
  IC50 DU-145: 3.0012 µg/mL
[19]
  IC50 SK-Hep-1: 5.4350 µg/mL and 4.2950 µg/mL
T98G
  IC50 T98G: 7.9216 µg/mL
NCI-H69
  IC50 NCI-H69: 0.6382 µg/mL
SK-N-SH
  IC50 SK-N-SH: 2.1178 µg/mL
SK-MEL-28 [20]
  IC50 SK-MEL-28: 4.3157 µg/mL
LoVo
  IC50 LoVo: 0.7318 µg/mL
